Experimental findings from ChEMBL document CHEMBL4130416, “Glycine-replaced derivatives of [Pro3,DLeu9]TL, a temporin L analogue: Evaluation of antimicrobial, cytotoxic and hemolytic activities” (Eur J Med Chem, 2017) are described below.

In data set [1] the test system is Staphylococcus epidermidis. The data set is described as follows: Antimicrobial activity against Staphylococcus epidermidis ATCC 12228 after 18 to 20 hrs by microbroth dilution method. The data set is classed as functional. (In general: Dilution methods test growth across graded concentrations, often in twofold steps.)
For data set [2], the system named is HaCaT. The data set is described as follows: Cytotoxicity against human HaCaT cells at 25 uM after 24 hrs by MTT assay relative to control. Type of data set: cell-based.
Data set [3] concerns Acinetobacter baumannii. The data set is described as follows: Antimicrobial activity against Acinetobacter baumannii ATCC 19606 after 18 to 20 hrs by microbroth dilution method. The conditions noted are these: ATCC 19606 = CIP 70.34 = JCM 6841. Type of data set: functional.
Data set [4] relates to Candida albicans. Briefly: Antimicrobial activity against Candida albicans ATCC 10231 after 18 to 20 hrs by microbroth dilution method. Type of data set: functional.
The next data set relates to Staphylococcus aureus. The data set is described as follows: Antimicrobial activity against Staphylococcus aureus Cowan I after 18 to 20 hrs by microbroth dilution method. The data set is classed as functional.
The test system of data set [5] is HaCaT. The data set is described as follows: Cytotoxicity against human HaCaT cells at 12.5 uM after 24 hrs by MTT assay relative to control. The data set is classed as cell-based. In general terms: Tetrazolium dyes change colour on reduction, which living cells bring about.
The subject of the next data set is Escherichia coli. The data set is described as follows: Antimicrobial activity against Escherichia coli D21 after 18 to 20 hrs by microbroth dilution method. The data set is classed as functional.
The next data set concerns Pichia kudriavzevii. The data set is described as follows: Antimicrobial activity against Candida krusei ATCC 6258 after 18 to 20 hrs by microbroth dilution method. Type of data set: functional.
Another data set deals with Pseudomonas syringae. The data set is described as follows: Antimicrobial activity against Pseudomonas syringae pv tabaci NCPPB 1918 after 18 to 20 hrs by microbroth dilution method. Type of data set: functional, Pseudomonas amygdali pv. tabaci.
The subject of the next data set is Priestia megaterium. The data set is described as follows: Antimicrobial activity against Bacillus megaterium Bm11 after 18 to 20 hrs by microbroth dilution method. Type of data set: functional.
For data set [6], the system named is HaCaT. The data set is described as follows: Cytotoxicity against human HaCaT cells at 1.56 to 6.25 uM after 24 hrs by MTT assay. The data set is classed as cell-based.
Another data set deals with Pseudomonas aeruginosa. The data set is described as follows: Antimicrobial activity against Pseudomonas aeruginosa ATCC 27853 after 18 to 20 hrs by microbroth dilution method. The data set is classed as functional.
Data set [7] relates to HaCaT. The data set is described as follows: Cytotoxicity against human HaCaT cells at 50 uM after 24 hrs by MTT assay relative to control. The data set is classed as cell-based.
In data set [8] the test system is Staphylococcus epidermidis. Briefly: Antimicrobial activity against Staphylococcus epidermidis ATCC 12228 assessed as membrane-perturbation measured every minute for 120 mins by SYTOX green fluorescence dye influx assay. Type of data set: functional, organism-based.
Data set [9] has as its system Acinetobacter baumannii. The data set is described as follows: Antimicrobial activity against Acinetobacter baumannii ATCC 19606 assessed as induction of membrane-perturbation at MIC measured every minute for 120 mins by SYTOX green fluorescence dye influx assay. Type of data set: functional, organism-based. The note with it: ATCC 19606 = CIP 70.34 = JCM 6841.
The test system of data set [10] is Candida albicans. Briefly: Antimicrobial activity against Candida albicans ATCC 10231 assessed as induction of membrane-perturbation at MIC measured every minute for 10 mins by SYTOX green fluorescence dye influx assay. Type of data set: functional, organism-based.

Values after ≈ are worked out from the molar mass of the structure shown. Active and inactive are the calls of the source. The rule behind the calls is not given here. Where a SMILES comes first, the peptide text is derived from it. [ ]: non-standard residue; d: D form. Aic = NC1(C(=O)O)Cc2ccccc2C1 Bounds are passed on as bounds.

The term MIC denotes the lowest concentration found to suppress growth. High values mean a need for much substance, low ones inhibition by little substance. In the case of `CC[C@H](C)C(NC(=O)[C@H](CCCNC(=N)N)NC(=O)[C@H](CCCCN)NC(=O)[C@@H](CC(C)C)NC(=O)[C@H](Cc1ccccc1)NC(=O)[C@H](CCCCN)NC(=O)[C@H](CO)NC(=O)[C@H](Cc1ccccc1)NC(=O)[C@H](Cc1c[nH]c2ccccc12)NC(=O)[C@@H]1CCCN1C(=O)[C@@H](NC(=O)[C@@H](N)Cc1ccccc1)C(C)C)C(=O)N[C@@H](CC(C)C)C(N)=O` (single isomer, unassigned), the minimal inhibitory concentration (MIC) was 3.12 µM (≈ 5.25 µg/mL) in [1]; 3.12 µM (≈ 5.25 µg/mL) in the data set with Acinetobacter baumannii [3]; 1.56 µM (≈ 2.62 µg/mL) with Candida albicans [4]; 6.25 µM (≈ 10.5 µg/mL) in the data set on Staphylococcus aureus; 12.5 µM (≈ 21 µg/mL) in the data set on Escherichia coli; 1.56 µM (≈ 2.62 µg/mL) in the data set with Pichia kudriavzevii. For the same molecule, the minimal inhibitory concentration (MIC) against Pseudomonas syringae was determined as 6.25 µM (≈ 10.5 µg/mL); against Priestia megaterium, 3.12 µM (≈ 5.25 µg/mL); against Pseudomonas aeruginosa it was 12.5 µM (≈ 21 µg/mL). Moreover, the Activity with HaCaT [2] is given as 66.86%; in the data set with HaCaT [5], 49.3%; in the data set with HaCaT [6], “Non-Toxic”; in the data set on HaCaT [7], 96.79%.
For the molecule `CC[C@H](C)[C@H](NC(=O)[C@H](CCCNC(=N)N)NC(=O)[C@@H]1C[C@@H](O)CN1C(=O)[C@@H](CC(C)C)NC(=O)[C@H](Cc1ccccc1)NC(=O)[C@H](CCCCN)NC(=O)[C@H](CO)NC(=O)[C@H](Cc1ccccc1)NC(=O)[C@H](Cc1c[nH]c2ccccc12)NC(=O)[C@@H]1CCCN1C(=O)[C@@H](NC(=O)[C@@H](N)Cc1ccccc1)C(C)C)C(=O)N[C@@H](CC(C)C)C(N)=O`, the MIC in [1] was 6.25 µM (≈ 10.4 µg/mL); in the data set with Acinetobacter baumannii [3] it was 6.25 µM (≈ 10.4 µg/mL); against Candida albicans [4], 3.12 µM (≈ 5.2 µg/mL); against Staphylococcus aureus it was 6.25 µM (≈ 10.4 µg/mL); against Escherichia coli it was 25 µM (≈ 41.6 µg/mL); with Pichia kudriavzevii it was 1.56 µM (≈ 2.6 µg/mL). Moreover, the MIC against Pseudomonas syringae was 12.5 µM (≈ 20.8 µg/mL); in the data set on Priestia megaterium, 1.56 µM (≈ 2.6 µg/mL); against Pseudomonas aeruginosa, 50 µM (≈ 83.3 µg/mL). Also, the Activity in the data set with HaCaT [2] was 84.72%; in the data set with HaCaT [5], 2.76%; with HaCaT [6], “Non-Toxic”; with HaCaT [7], 98.81%.
In the case of `CC[C@H](C)[C@H](NC(=O)[C@H](CCCNC(=N)N)NC(=O)C1(NC(=O)[C@@H](CC(C)C)NC(=O)[C@H](Cc2ccccc2)NC(=O)[C@H](CCCCN)NC(=O)[C@H](CO)NC(=O)[C@H](Cc2ccccc2)NC(=O)[C@H](Cc2c[nH]c3ccccc23)NC(=O)[C@@H]2CCCN2C(=O)[C@@H](NC(=O)[C@@H](N)Cc2ccccc2)C(C)C)Cc2ccccc2C1)C(=O)N[C@@H](CC(C)C)C(N)=O` (H-FVPWFSKF[dL][Aic]RIL-NH2), the MIC is 1.56 µM (≈ 2.67 µg/mL) in data set [1]; 3.12 µM (≈ 5.35 µg/mL) against Acinetobacter baumannii [3]; 6.25 µM (≈ 10.7 µg/mL) in the data set on Candida albicans [4]; 1.56 µM (≈ 2.67 µg/mL) in the data set with Staphylococcus aureus; greater than 50 µM in the data set on Escherichia coli; 6.25 µM (≈ 10.7 µg/mL) against Pichia kudriavzevii. In addition, the MIC with Pseudomonas syringae is 1.56 µM (≈ 2.67 µg/mL); against Priestia megaterium it was 1.56 µM (≈ 2.67 µg/mL); against Pseudomonas aeruginosa, greater than 50 µM. Besides, the Activity in the data set on HaCaT [2] is 88.72%; with HaCaT [5], 45.54%; in the data set with HaCaT [6] it was “Non-Toxic”; with HaCaT [7], 92.84%.
Regarding `CC[C@H](C)[C@H](NC(=O)[C@H](CCCNC(=N)N)NC(=O)[C@H]1C[C@@H](O)CN1C(=O)[C@@H](CC(C)C)NC(=O)[C@H](Cc1ccccc1)NC(=O)[C@H](CCCCN)NC(=O)[C@H](CO)NC(=O)[C@H](Cc1ccccc1)NC(=O)[C@H](Cc1c[nH]c2ccccc12)NC(=O)[C@@H]1CCCN1C(=O)[C@@H](NC(=O)[C@@H](N)Cc1ccccc1)C(C)C)C(=O)N[C@@H](CC(C)C)C(N)=O`, the MIC was 50 µM (≈ 83.3 µg/mL) in data set [1]; 25 µM (≈ 41.6 µg/mL) against Acinetobacter baumannii [3]; 3.12 µM (≈ 5.2 µg/mL) with Candida albicans [4]; greater than 50 µM against Staphylococcus aureus; 25 µM (≈ 41.6 µg/mL) in the data set on Escherichia coli; 3.12 µM (≈ 5.2 µg/mL) with Pichia kudriavzevii. Further, the results for the MIC in the data set with Pseudomonas syringae, against Priestia megaterium and against Pseudomonas aeruginosa were greater than 50 µM, 3.12 µM (≈ 5.2 µg/mL) and greater than 50 µM, respectively. In addition, the Activity in the data set with HaCaT [2] is on record as 0%; with HaCaT [5] it was 0%; with HaCaT [6] it was “Non-Toxic”; with HaCaT [7] it was 0%.
Regarding H-FVQWFSKFLGRIL-NH2, the result (in data set [8]; in the data set on Acinetobacter baumannii [9]; in the data set on Candida albicans [10]) was Active.
Regarding `CC[C@H](C)[C@H](NC(=O)[C@H](CCCNC(=N)N)NC(=O)[C@H]1CCCN1C(=O)[C@@H](CC(C)C)NC(=O)[C@H](Cc1ccccc1)NC(=O)[C@H](CCCCN)NC(=O)[C@H](CO)NC(=O)[C@H](Cc1ccccc1)NC(=O)[C@H](Cc1c[nH]c2ccccc12)NC(=O)[C@@H]1CCCN1C(=O)[C@@H](NC(=O)[C@@H](N)Cc1ccccc1)C(C)C)C(=O)N[C@@H](CC(C)C)C(N)=O` (H-FVPWFSKF[dL][dP]RIL-NH2), the minimal inhibitory concentration (MIC) is 25 µM (≈ 41.2 µg/mL) in data set [1]; 50 µM (≈ 82.5 µg/mL) in the data set on Acinetobacter baumannii [3]; 3.12 µM (≈ 5.15 µg/mL) against Candida albicans [4]; greater than 50 µM in the data set on Staphylococcus aureus; 50 µM (≈ 82.5 µg/mL) in the data set on Escherichia coli; 3.12 µM (≈ 5.15 µg/mL) in the data set on Pichia kudriavzevii. The MIC was 50 µM (≈ 82.5 µg/mL) against Pseudomonas syringae, 3.12 µM (≈ 5.15 µg/mL) in the data set on Priestia megaterium and greater than 50 µM in the data set on Pseudomonas aeruginosa. In addition, the Activity in the data set with HaCaT [2] is 0%; in the data set with HaCaT [5], 0%; with HaCaT [6], “Non-Toxic”; in the data set on HaCaT [7], 0%.
With `CC[C@H](C)[C@H](NC(=O)[C@H](CCCNC(=N)N)NC(=O)[C@@H]1CCCN1C(=O)[C@@H](CC(C)C)NC(=O)[C@H](Cc1ccccc1)NC(=O)[C@H](CCCCN)NC(=O)[C@H](CO)NC(=O)[C@H](Cc1ccccc1)NC(=O)[C@H](Cc1c[nH]c2ccccc12)NC(=O)[C@@H]1CCCN1C(=O)[C@@H](NC(=O)[C@@H](N)Cc1ccccc1)C(C)C)C(=O)N[C@@H](CC(C)C)C(N)=O` (H-FVPWFSKF[dL]PRIL-NH2), the minimal inhibitory concentration (MIC) was found to be 3.12 µM (≈ 5.15 µg/mL) in [1]; 6.25 µM (≈ 10.3 µg/mL) against Acinetobacter baumannii [3]; 1.56 µM (≈ 2.57 µg/mL) against Candida albicans [4]; 3.12 µM (≈ 5.15 µg/mL) in the data set on Staphylococcus aureus; 25 µM (≈ 41.2 µg/mL) against Escherichia coli; 1.56 µM (≈ 2.57 µg/mL) against Pichia kudriavzevii. Moreover, the MIC in the data set with Pseudomonas syringae was found to be 12.5 µM (≈ 20.6 µg/mL); against Priestia megaterium, 1.56 µM (≈ 2.57 µg/mL); with Pseudomonas aeruginosa it was 50 µM (≈ 82.5 µg/mL). Further, the Activity with HaCaT [2] is 77.06%; with HaCaT [5], 16.15%; with HaCaT [6], “Non-Toxic”; with HaCaT [7], 96.61%.
In the case of `CCCC[C@H](NC(=O)[C@@H](CC(C)C)NC(=O)[C@H](Cc1ccccc1)NC(=O)[C@H](CCCCN)NC(=O)[C@H](CO)NC(=O)[C@H](Cc1ccccc1)NC(=O)[C@H](Cc1c[nH]c2ccccc12)NC(=O)[C@@H]1CCCN1C(=O)[C@@H](NC(=O)[C@@H](N)Cc1ccccc1)C(C)C)C(=O)N[C@@H](CCCNC(=N)N)C(=O)NC(C(=O)N[C@@H](CC(C)C)C(N)=O)[C@@H](C)CC` (single isomer, unassigned), the MIC in data set [1] was 3.12 µM (≈ 5.2 µg/mL); against Acinetobacter baumannii [3], 6.25 µM (≈ 10.4 µg/mL); with Candida albicans [4], 3.12 µM (≈ 5.2 µg/mL); in the data set on Staphylococcus aureus, 3.12 µM (≈ 5.2 µg/mL); against Escherichia coli, 25 µM (≈ 41.6 µg/mL); with Pichia kudriavzevii it was 3.12 µM (≈ 5.2 µg/mL). Also, the MIC amounted to 6.25 µM (≈ 10.4 µg/mL) against Pseudomonas syringae, 3.12 µM (≈ 5.2 µg/mL) in the data set on Priestia megaterium and 50 µM (≈ 83.3 µg/mL) in the data set on Pseudomonas aeruginosa. The Activity in the data set with HaCaT [2] is on record as 65.86%; with HaCaT [5] it was 12.25%; with HaCaT [6], “Non-Toxic”; with HaCaT [7], 99.76%.
